{"source": "patent US4029811A", "about": "“Certain antiinflammatory dihydrobenzofuran and dihydronaphthofuran acetic acid compounds” (SCHIAPPARELLI - Stabilimenti Chimici Farmaceutici Riuniti …, priority 1974, dated 1977)", "key": {"rat hind paw edema": {"test_system": "rat hind paw edema", "experiment": "Carrageenin-induced edema assay", "format": "in vivo", "details": "po, 3 hours after carrageenin, tested compounds as sodium salts; for inhibition in vivo at 200 mg/kg: 200 mg/Kg/os; for inhibition in vivo at 10 mg/kg: 10 mg/Kg/os; for inhibition in vivo at 30 mg/kg: 30 mg/Kg/os; for inhibition in vivo at 90 mg/kg: 90 mg/Kg/os; for inhibition in vivo at 12.5 mg/kg: 12.5 mg/Kg/os; for inhibition in vivo at 25 mg/kg: 25 mg/Kg/os; for inhibition in vivo at 50 mg/kg: 50 mg/Kg/os; for inhibition in vivo at 100 mg/kg: 100 mg/Kg/os", "description": "Paw edema was measured by fluid displacement when the paw was immersed in a cup of mercury."}, "[1]": {"test_system": "experimental polyarthritis", "experiment": "Experimental polyarthritis assay (modified Freund's adjuvant)", "format": "in vivo, rat", "details": "for Activity in experimental polyarthritis assay: 14 days, paw volume, FIG. 1", "description": "Three groups of 10 Wistar rats were used. […] Pharmacological treatment was carried out for 14 days, while the third group served as control. Paw edema was measured as for the carrageenin-induced edema. Results are reported in FIG. 1 as % increase of paw volume immediately before modified Freund's adjuvant injection."}, "abdominal stretching": {"test_system": "abdominal stretching", "experiment": "Anti-writhing assay (acetic acid)", "format": "in vivo, mouse", "details": "200 mg/Kg p.o., 20 minutes before 3% acetic acid i.p.; counted 20 minutes", "description": "Male albino Swiss Mice, each weighing 20 to 22 g, were used. The animals were fasted for 18 hours before pharmacological treatment. […] The number of abdominal stretching was counted for 20 minutes following the acetic acid injection."}, "Wistar rats [2]": {"test_system": "Wistar rats", "experiment": "Long-term toxicity (60 days oral) in Wistar rats", "format": "in vivo", "details": "60 mg/kg daily orally", "description": "Compound (I) has been tested by employing 40 Wistar rats subdivided into 2 groups of 20 animals (10 male and 10 female). One of the groups (reference group) was fed in conventional manner, while 60 mg/kg daily of the compound on test were administered orally to the animals of the other group. The treatment was continued during 60 days: every 15 days the following aspects were checked: body weight, blood pressure (by incruent method), cardiac frequency, hemochromocytometric examination and urine analysis.\nAt the end of treatment, all animals have been sacrificed and subjected to further examinations (hemochromocytometric, serum-biochemical, enzymatic, electrolytic and autopsic examination)."}, "Wistar rats [3]": {"test_system": "Wistar rats", "experiment": "Teratogenic studies in Wistar rats", "format": "in vivo", "details": "30 mg/Kg and 60 mg/Kg orally", "description": "Tests in the attempt of discovering any teratogenic and fetal-toxicity effects have been carried out in conventional manner on Wistar rats, to which compound (I) has been administered orally at dosages of 30 mg/Kg and 60 mg/Kg."}, "[4]": {"test_system": "painful osteoarticular processes", "experiment": "Clinical tests in patients with painful osteoarticular processes", "format": "in vivo, human", "description": "14 patients were treated with a dosage of 100 mg three times daily, during a period of three days; in further seven cases the treatment was 200--300 mg daily during 8-10 days. The remaining four patients received a dosage of 200 mg three times daily during periods of three to five days."}, "[5]": {"details": "case 1, 100 mg three times daily"}, "[6]": {"details": "case 1, lumbosacral arthrosis, 100 mg three times daily"}}, "note": "Entries after “also recorded” stand apart in the source; their conditions may differ. Counter-ions that a name gives are not always drawn.", "data": [{"smiles": "O=C(O)Cc1ccc2c3c(ccc2c1)OCC3", "note": "[(III), 1,2-Dihydronaphtho [2,1-b] furan-7-acetic acid]", "values": [{"measurement": "inhibition in vivo at 200 mg/kg", "setting": "rat hind paw edema", "result": 51, "unit": "%"}, {"measurement": "Activity relative to compound (I)", "setting": "[1]; same conditions as for compound (I)", "result": "quite analogous to the activity of compound (I)"}, {"measurement": "% Stretching decrease from the control", "setting": "abdominal stretching", "result": 73, "unit": "%"}]}, {"smiles": "CCC1CCc2cc(CC(=O)O)ccc2O1", "note": "(stereo not drawn) [(II), 2-ethylchroman-6-yl-acetic acid]", "values": [{"measurement": "inhibition in vivo at 200 mg/kg", "setting": "rat hind paw edema", "result": 31, "unit": "%"}, {"measurement": "% Stretching decrease from the control", "setting": "abdominal stretching", "result": 42, "unit": "%"}]}, {"smiles": "CCCCC1C(=O)N(c2ccccc2)N(c2ccccc2)C1=O", "note": "[Phenylbutazone, reference compound]", "values": [{"measurement": "inhibition in vivo at 10 mg/kg", "setting": "rat hind paw edema", "result": 8, "unit": "%"}, {"measurement": "inhibition in vivo at 30 mg/kg", "setting": "rat hind paw edema", "result": 17, "unit": "%"}, {"measurement": "inhibition in vivo at 90 mg/kg", "setting": "rat hind paw edema", "result": 20, "unit": "%"}, {"measurement": "inhibition in vivo at 200 mg/kg", "setting": "rat hind paw edema", "result": 42, "unit": "%"}, {"measurement": "Activity in experimental polyarthritis assay", "setting": "[1]; 200 mg/Kg p.o.", "result": "significant activity"}, {"measurement": "% Stretching decrease from the control", "setting": "abdominal stretching", "result": 43, "unit": "%"}]}, {"smiles": "CC(C)Cc1ccc(C(C)C(=O)O)cc1", "note": "(stereo not drawn) [Ibuprofen, 2-(4-isobutyl-phenyl)-propionic acid-sodium salt, reference compound]", "values": [{"measurement": "inhibition in vivo at 12.5 mg/kg", "setting": "rat hind paw edema", "result": 42.1, "unit": "%"}, {"measurement": "inhibition in vivo at 25 mg/kg", "setting": "rat hind paw edema", "result": 38.1, "unit": "%"}, {"measurement": "inhibition in vivo at 50 mg/kg", "setting": "rat hind paw edema", "result": 52.1, "unit": "%"}, {"measurement": "inhibition in vivo at 100 mg/kg", "setting": "rat hind paw edema", "result": 46.9, "unit": "%"}]}, {"smiles": "CCC1Cc2cc(C(C)C(=O)O)ccc2O1", "note": "(stereo not drawn) [(VI), 2(2-Ethyl-2,3-dihydrobenzofuran-5-yl)-propionic acid]", "values": [{"measurement": "inhibition in vivo at 12.5 mg/kg", "setting": "rat hind paw edema", "result": 19.3, "unit": "%"}, {"measurement": "inhibition in vivo at 25 mg/kg", "setting": "rat hind paw edema", "result": 41.6, "unit": "%"}, {"measurement": "inhibition in vivo at 50 mg/kg", "setting": "rat hind paw edema", "result": 43.9, "unit": "%"}, {"measurement": "inhibition in vivo at 100 mg/kg", "setting": "rat hind paw edema", "result": 59.1, "unit": "%"}]}, {"smiles": "O=C(O)Cc1ccc2c3c(ccc2c1)OCCC3", "note": "[(IV), 1H-2,3-Dihydronaphtho [2,1-b]pyran-8-yl-acetic acid]", "values": [{"measurement": "inhibition in vivo at 200 mg/kg", "setting": "rat hind paw edema", "result": 64, "unit": "%"}, {"measurement": "% Stretching decrease from the control", "setting": "abdominal stretching", "result": 62, "unit": "%"}]}, {"smiles": "CCC1Cc2cc(CC(=O)O)ccc2O1", "note": "(stereo not drawn) [Compound (I), 2,3-dihydro-2-ethylbenzofuran-5-yl-acetic acid]", "values": [{"measurement": "Food consumption", "setting": "Wistar rats [2]; 60 days", "result": "The food consumption was regular"}, {"measurement": "Lethal cases", "setting": "Wistar rats [2]; 60 days", "result": "No lethal cases have been observed"}, {"measurement": "Alterations induced by prolonged administration", "setting": "Wistar rats [2]; 60 days, conclusion", "result": "does not induce biologically relevant alterations"}, {"measurement": "Hemochromocytometric, serum-biochemical, enzymatic, electrolytic and autopsic examination", "setting": "Wistar rats [2]; at end of 60 days treatment", "result": "No significant variations have been observed"}, {"measurement": "Body weight increase, blood pressure, cardiac frequency, hemochromocytometric examination and urine analysis", "setting": "Wistar rats [2]; checked every 15 days during 60 days, versus reference group", "result": "No differences have been noted"}, {"measurement": "Pregnancy disturbances and/or toxic effects on fetus", "setting": "Wistar rats [3]", "result": "No. pregnancy disturbances and/or toxic effects on fetus have been observed"}, {"measurement": "inhibition in vivo at 10 mg/kg", "setting": "rat hind paw edema", "result": 28, "unit": "%"}, {"measurement": "inhibition in vivo at 30 mg/kg", "setting": "rat hind paw edema", "result": 46, "unit": "%"}, {"measurement": "inhibition in vivo at 90 mg/kg", "setting": "rat hind paw edema", "result": 58, "unit": "%"}, {"measurement": "inhibition in vivo at 200 mg/kg", "setting": "rat hind paw edema", "result": 68, "unit": "%"}, {"measurement": "Activity in experimental polyarthritis assay", "setting": "[1]; 200 mg/Kg p.o.", "result": "significant activity"}, {"measurement": "Activity versus reference drug (phenylbutazone)", "setting": "[1]; 200 mg/Kg p.o., at least in the first 9 days of treatment", "result": "superior to the reference drug"}, {"measurement": "% Stretching decrease from the control", "setting": "abdominal stretching", "result": 81, "unit": "%"}, {"measurement": "Side effects", "setting": "[4]; 25 patients, oral", "result": "no side effects having been observed"}, {"measurement": "Tolerability", "setting": "[4]; 25 patients, oral", "result": "always well tolerated"}, {"measurement": "Antalgic-antiinflammatory effect", "setting": "[4]; 25 patients, oral, overall", "result": "significant antalgic-antiinflammatory effect"}, {"measurement": "Side effects", "setting": "[4]; [5]", "result": "no side effects having been observed"}, {"measurement": "Tolerability", "setting": "[4]; [5]", "result": "exceedingly well tolerated"}, {"measurement": "Clinical response, first day", "setting": "[4]; [6]", "result": "fair symptomatologic relief"}, {"measurement": "Clinical response, second day", "setting": "[4]; [6]", "result": "improvement persists on the second day with an increased possibility for movement and gait"}, {"measurement": "Clinical response, third day", "setting": "[4]; [6]", "result": "the painful pattern has almost totally regressed"}, {"measurement": "Side effects", "setting": "[4]; case 2, 100 mg three times daily, eight days", "result": "No side effect"}, {"measurement": "Clinical response", "setting": "[4]; case 2, polyarthrosis, 100 mg three times daily, eight days", "result": "clear symptomatologic relief; gait is easier on the 4th and 5th day and mobility of the knee joint is improved; also recorded: Clearly positive clinical appreciation"}, {"measurement": "Side effects", "setting": "[4]; case 3, 100 mg three times daily, seven days", "result": "No side effect"}, {"measurement": "Clinical response", "setting": "[4]; case 3, cervical arthrosis, 100 mg three times daily, seven days", "result": "The patient reports relief; disappearance of cephalgia, possibility of rotating the cervical column initially blocked by pain; also recorded: almost total regression of algic aggravation"}, {"measurement": "Side effects", "setting": "[4]; case 4, 100 then 200 mg three times daily", "result": "no side effect"}, {"measurement": "Clinical response", "setting": "[4]; case 4, bilateral coxo-arthrosis, 100 mg three times daily days 1-2, 200 mg three times daily day 3", "result": "satisfactory response of the painful pattern with a progressive reduction in algic symptomatology; also recorded: Appreciably favourable clinical response"}, {"measurement": "Side effects", "setting": "[4]; case 5, 100 mg three times daily, five days", "result": "without any side effect"}, {"measurement": "Clinical response", "setting": "[4]; case 5, spinal arthrosis, 100 mg three times daily, five days", "result": "good antalgic effect; improved freedom of active and passive movements of the spinal column"}, {"measurement": "Antalgic-antiinflammatory effect judged slight", "setting": "[4]; five of 25 cases", "result": 20, "unit": "%"}, {"measurement": "Antalgic-antiinflammatory effect judged good or very good", "setting": "[4]; seventeen of 25 cases", "result": 68, "unit": "%"}, {"measurement": "Antalgic-antiinflammatory effect judged none", "setting": "[4]; three of 25 cases", "result": 12, "unit": "%"}]}, {"smiles": "CCC1CCc2cc(C(C)C(=O)O)ccc2O1", "note": "(stereo not drawn) [(VII), 2(2-Ethylchroman-6-yl)-propionic acid]", "values": [{"measurement": "inhibition in vivo at 12.5 mg/kg", "setting": "rat hind paw edema", "result": 28.7, "unit": "%"}, {"measurement": "inhibition in vivo at 25 mg/kg", "setting": "rat hind paw edema", "result": 50.2, "unit": "%"}, {"measurement": "inhibition in vivo at 50 mg/kg", "setting": "rat hind paw edema", "result": 31.2, "unit": "%"}, {"measurement": "inhibition in vivo at 100 mg/kg", "setting": "rat hind paw edema", "result": 45.9, "unit": "%"}]}]}
